Patent publication US4007177A, “Cephalosporin derivatives” (Sankyo Company Limited, priority 1973, dated 1977)
≈ marks a conversion by molar mass, not a printed value. Where two headings read alike, the source gives them in different places.

How the values were obtained:
Format in all cases: cell-based
[1] = tested on: S.aureus 209p; assay: Minimum inhibitory concentration, S.aureus 209p; details: Staphylococcus aureus
Protocol: (§1) Minimum inhibitory concentrations (MIC) were determined for the compounds of this invention.

[2] = tested on: Sh. flexneri 2a; assay: Minimum inhibitory concentration, Sh. flexneri 2a; details: Shigella flexneri
Protocol: as §1

[3] = tested on: E. coli 609 (R); assay: Minimum inhibitory concentration, E. coli 609 (R); details: Escherichia coli, read-out: Minimum Inhibitory Concentration
Protocol: as §1

[4] = tested on: E. coli NIHJ; assay: Minimum inhibitory concentration, E. coli NIHJ; details: Escherichia coli
Protocol: as §1

[5] = tested on: Salm. ent. Gaertner; assay: Minimum inhibitory concentration, Salm. ent. Gaertner; details: read-out: Minimum Inhibitory Concentration
Protocol: as §1

[6] = tested on: Klebsiella 806; assay: Minimum inhibitory concentration, Klebsiella 806
Protocol: as §1

[7] = tested on: Prot. vulgaris; assay: Minimum inhibitory concentration, Prot. vulgaris; details: Proteus vulgaris
Protocol: as §1

[8] = tested on: Klebsiella 846; assay: Minimum inhibitory concentration, Klebsiella 846
Protocol: as §1

[9] = tested on: S.aureus R; assay: Minimum inhibitory concentration, S.aureus R; details: Staphylococcus aureus
Protocol: as §1

| Compound | MIC [1] [µg/mL] | MIC [2] [µg/mL] | MIC ([3]; E. coli 609 (R)) [µg/mL] | MIC [4] [µg/mL] | MIC ([5]; Salm. ent. Gaertner) [µg/mL] | MIC [6] [µg/mL] | MIC [7] [µg/mL] | MIC [8] [µg/mL] | MIC [9] [µg/mL] | MIC [5] [µg/mL] | MIC [3] [µg/mL] |
| --- | --- | --- | --- | --- | --- | --- | --- | --- | --- | --- | --- |
| COC1(NC(=O)C[n+]2cc([O-])on2)C(=O)N2C(C(=O)O)=C(CSc3nnnn3C)CSC21 (stereo not drawn) | 0.8 (≈ 1.65 µM) | 1.5 (≈ 3.1 µM) | 1.5 (≈ 3.1 µM) | 1.5 (≈ 3.1 µM) | 0.8 (≈ 1.65 µM) | 1.5 (≈ 3.1 µM) | 6.2 (≈ 12.8 µM) | > 200 | 1.5 (≈ 3.1 µM) |  |  |
| COC1(NC(=O)COc2ccon2)C(=O)N2C(C(=O)O)=C(CSc3nnnn3C)CSC21 (stereo not drawn) | 0.2 (≈ 0.414 µM) | 3.1 (≈ 6.41 µM) | 3.1 (≈ 6.41 µM) | 3.1 (≈ 6.41 µM) | 1.5 (≈ 3.1 µM) | 3.1 (≈ 6.41 µM) | 6.2 (≈ 12.8 µM) | > 400 | 0.8 (≈ 1.65 µM) |  |  |
| COC1(NC(=O)CSc2ccon2)C(=O)N2C(C(=O)O)=C(CSc3nnnn3C)CSC21 (stereo not drawn) | 0.2 (≈ 0.4 µM) | 3.1 (≈ 6.21 µM) | 3.1 (≈ 6.21 µM) | 3.1 (≈ 6.21 µM) | 0.8 (≈ 1.6 µM) | 6.2 (≈ 12.4 µM) | 3.1 (≈ 6.21 µM) | > 400 | 0.8 (≈ 1.6 µM) |  |  |
| COC1(NC(=O)CSc2ccon2)C(=O)N2C(C(=O)O)=C(COC(C)=O)CSC21 (stereo not drawn) [3-Acetoxymethyl-7β-(3-isoxazolylthioacetamido)-7α-methoxy-3-cephem-4-carboxylic acid] | 0.2 (≈ 0.451 µM) | 6.2 (≈ 14 µM) |  |  |  |  |  | > 400 | 0.8 (≈ 1.8 µM) |  |  |
| CCS(=O)(=O)CC(=O)N[C@]1(OC)C(=O)N2C(C(=O)O)=C(CSc3nnnn3C)CS[C@@H]21 [C2 H 5 SO2, 7β-Ethylsulfonylacetamido-7α-methoxy-3-(1-methyl-1H-tetrazol-5-yl)thiomethyl-3-cephem-4-carboxylic acid] | 1.5 (≈ 3.05 µM) | 1.5 (≈ 3.05 µM) | 1.5 (≈ 3.05 µM) | 1.5 (≈ 3.05 µM) | 0.8 (≈ 1.62 µM) | 1.5 (≈ 3.05 µM) | 6.2 (≈ 12.6 µM) | > 400 | 1.5 (≈ 3.05 µM) |  |  |
| COC1(NC(=O)Cc2ccccc2)C(=O)N2C(C(=O)O)=C(COC(N)=O)CSC21 (stereo not drawn) [C6 H5, reference compound] | 0.8 (≈ 1.9 µM) | 12.5 (≈ 29.7 µM) | 25 (≈ 59.3 µM) | 25 (≈ 59.3 µM) |  | 25 (≈ 59.3 µM) | 25 (≈ 59.3 µM) | > 400 | 3.1 (≈ 7.36 µM) | 12.5 (≈ 29.7 µM) |  |
| COC1(NC(=O)CS(C)(=O)=O)C(=O)N2C(C(=O)O)=C(CSc3nnnn3C)CSC21 (stereo not drawn) [CH3 SO2, 7α-Methoxy-7β-methylsulfonylacetamido-3-(1-methyl-1H-tetrazol-5-yl)thiomethyl-3-cephem-4-carboxylic acid] | 0.8 (≈ 1.67 µM) | 1.5 (≈ 3.13 µM) |  |  | 0.4 (≈ 0.836 µM) | 0.8 (≈ 1.67 µM) |  | 400 (≈ 836 µM) |  |  |  |
| CC(=O)OCC1=C(C(=O)O)N2C(=O)[C@@H](NC(=O)Cc3cccs3)[C@H]2SC1 [Cephalothin, reference compound] |  | 12.5 (≈ 31.5 µM) |  | 6.2 (≈ 15.6 µM) | 6.2 (≈ 15.6 µM) | 6.2 (≈ 15.6 µM) | 6.2 (≈ 15.6 µM) | > 200 |  |  | 25 (≈ 63.1 µM) |
| C#CCSCC(=O)NC1(OC)C(=O)N2C(C(=O)O)=C(CSc3nnnn3C)CSC21 (stereo not drawn) [HCCCH2 S, 3-(1-Methyl-1H-tetrazol-5-yl)thiomethyl-7β-propargylthioacetamido-7α-methoxy-3-cephem-4-carboxylic acid] | 0.2 (≈ 0.425 µM) | 3.1 (≈ 6.59 µM) |  |  | 0.8 (≈ 1.7 µM) |  |  | 400 (≈ 850 µM) | 0.8 (≈ 1.7 µM) |  |  |
| COC1(NC(=O)CSCCO)C(=O)N2C(C(=O)O)=C(CSc3nnnn3C)CSC21 (stereo not drawn) [HOCH2 CH2 S, 7β-(2-Hydroxyethyl)thioacetamido-7α-methoxy-3-(1-methyl-1H-tetrazol-5-yl)thiomethyl-3-cephem-4-carboxylic acid] | 0.8 (≈ 1.68 µM) | 3.1 (≈ 6.5 µM) | 1.5 (≈ 3.15 µM) | 1.5 (≈ 3.15 µM) | 1.5 (≈ 3.15 µM) | 1.5 (≈ 3.15 µM) | 6.2 (≈ 13 µM) | 400 (≈ 839 µM) | 1.5 (≈ 3.15 µM) |  |  |
| CO[C@@]1(NC(=O)CSCN=[N+]=[N-])C(=O)N2C(C(=O)O)=C(COC(N)=O)CS[C@@H]21 [N3 CH2 S, OCONH2, 7β-Azidomethylthioacetamido-3-carbamoyloxymethyl-7α-methoxy-3-cephem-4-carboxylic acid] | 0.2 (≈ 0.462 µM) | 3.1 (≈ 7.17 µM) | 6.2 (≈ 14.3 µM) | 3.1 (≈ 7.17 µM) | 1.5 (≈ 3.47 µM) | 3.1 (≈ 7.17 µM) | 3.1 (≈ 7.17 µM) | > 400 | 1.5 (≈ 3.47 µM) |  |  |
| COC1(NC(=O)CSCN=[N+]=[N-])C(=O)N2C(C(=O)O)=C(CSc3nnnn3C)CSC21 (stereo not drawn) [N3 CH2 S] | 0.4 (≈ 0.82 µM) | 1.5 (≈ 3.08 µM) | 3.1 (≈ 6.36 µM) | 3.1 (≈ 6.36 µM) | 0.8 (≈ 1.64 µM) | 3.1 (≈ 6.36 µM) | 1.5 (≈ 3.08 µM) | > 200 | 0.4 (≈ 0.82 µM) |  |  |
| COC1(NC(=O)CS(=O)(=O)CCC#N)C(=O)N2C(C(=O)O)=C(CSc3nnnn3C)CSC21 (stereo not drawn) [NCCH2 CH2 SO2, 7β-(2-Cyanoethylsulfonyl)acetamido-7α-methoxy-3-(1-methyl-1H-tetrazol-5-yl)thiomethyl-3-cephem-4-carboxylic acid] | 1.5 (≈ 2.9 µM) | 3.1 (≈ 5.99 µM) | 1.5 (≈ 2.9 µM) | 1.5 (≈ 2.9 µM) | 0.8 (≈ 1.55 µM) | 1.5 (≈ 2.9 µM) | 6.2 (≈ 12 µM) | 200 (≈ 386 µM) | 3.1 (≈ 5.99 µM) |  |  |
